Assay results: US12479784B2, “Trisphenol derivative” (HONSHU CHEMICAL INDUSTRY CO., LTD., priority 2020, dated 2025)

Experiments:
[1] = Evaluation Test 1: Solubility at 30° C. in ethyl lactate; type: physicochemical; settings: for Solubility (g/100 g, 30° C.): in ethyl lactate, stirred 3 hours, HPLC quantification
Description: (4) Conditions of solubility measurement and analysis of comparative compounds (x) and (y)
<Evaluation Test 1: Solubility at 30° C.>
For compound (C1) and compound (C2) obtained in Examples and the following two compounds having six functional groups likewise and reported as crosslinking agents, the solubility at 30° C. in ethyl lactate widely used as a resist solvent was measured. The following compounds are referred to as “comparative compound (x)” and “comparative compound (y)”.
A cross-shaped stirrer and 10 g of ethyl lactate were added to a 100 ml test tube, and after 10 g of comparative compound (x) (or (y)) was added, a siphon was attached. Under nitrogen purge, the test tube was set in a pre-conditioned water bath at 30° C. and stirred with the stirrer for 3 hours. After the stirring for 3 hours, the internal solution was sampled with a pipette, and solids were filtered off from the sampled solution through a syringe filter to put a filtrate in a 50 ml measuring flask. This was diluted to the 50 ml mark with methanol for HPLC and analyzed with a high-performance liquid chromatography analyzer. From the results obtained, comparative compound (x) (or (y)) in the filtrate was quantified using the peak area of comparative compound (x) (or (y)), and the solubility (=quantitative value (mg) of comparative compound (x) or (y)/(weight (mg) of filtrate put in 50 ml measuring flask through syringe filter-quantitative value (mg) of comparative compound (x) or (y)) was calculated.
Method of constructing calibration curve: comparative compound (x) (or (y)) used in the test was analyzed by HPLC, and an approximate straight line obtained by plotting the peak area of comparative compound (x) (or (y) on the horizontal axis and the concentration (mg/50 ml) of comparative compound (x) (or (y)) on the vertical axis with “intercept=0” was used as a calibration curve of comparative compound (x) (or (y)).

[2] = Evaluation Test 2: Low-temperature storage stability (dissolution stability) of ethyl lactate solutions; type: physicochemical; parameters: key to Solution storage test 5° C. / Solution storage test −5° C.: ∘: Completely dissolved, and neither precipitation of crystals nor separation of oily components can be visually observed.; x: Precipitation of crystals or separation of oily components can be visually observed; settings: for Solution storage test −5° C. / Solution storage test 5° C.: ethyl lactate solution; for Solution storage test −5° C.: freezer −5° C.; for Solution storage test −5° C. / Solution storage test 5° C. / Crystallization on storage, in words: 30 days; for Solution storage test 5° C.: refrigerator 5° C.; for Crystallization on storage, in words: ethyl lactate solutions, both at 5° C. and −5° C.
Description: <Evaluation Test 2: Low-Temperature Storage Stability (Dissolution Stability)>
In a 50 ml screw tube, 4.29 g of compound (C1), the inventive compound, and 5.71 g of ethyl lactate were placed and mixed, and the screw tube was put in a water bath set at 30° C. and stirred by shaking it by hand. Complete dissolution was visually observed, thus preparing an ethyl lactate solution with a compound (C1) concentration of 42.9 wt %.
In the same manner as for compound (C1), an ethyl lactate solution with a compound (C2) concentration of 40 wt %, an ethyl lactate solution with a compound (C2) concentration of 50 wt %, and an ethyl lactate solution with a compound (y) concentration of 40 wt % were prepared.
These solutions were subjected to solution storage tests in a refrigerator (5° C.) and a freezer (−5° C.) for 30 days.
∘: Completely dissolved, and neither precipitation of crystals nor separation of oily components can be visually observed.
x: Precipitation of crystals or separation of oily components can be visually observed.

| SMILES | Solubility (g/100 g, 30° C.) [1] [g/100 g] | Solution storage test −5° C. ([2]; concentration 40.0 wt %) | Solution storage test 5° C. ([2]; concentration 40.0 wt %) | Crystallization on storage, in words [2] | Re-dissolution of precipitated crystals ([2]; test sample with precipitated crystals left at room temperature (22° C.) for one day) | Solubility in ethyl lactate relative to comparative compound (x) ([1]; ethyl lactate) | Solubility in ethyl lactate relative to comparative compound (y) ([1]; ethyl lactate) | Solubility (g/100 g, 30° C.) ([1]; listed as compound (C2)) | Solution storage test −5° C. ([2]; concentration 50.0 wt %) | Solution storage test 5° C. ([2]; concentration 50.0 wt %) |
| --- | --- | --- | --- | --- | --- | --- | --- | --- | --- | --- |
| COCc1cc(C(C)(C)c2ccc(C(C)(c3cc(COC)c(O)c(COC)c3)c3cc(COC)c(O)c(COC)c3)cc2)cc(COC)c1O [Comparative compound (x), reference compound] | 38.7 |  |  |  |  |  |  |  |  |  |
| COCc1cc(C(C)(c2cc(COC)c(O)c(COC)c2)c2cc(COC)c(O)c(COC)c2)cc(COC)c1O [(y), reference compound] | 84.0 | x | x | experienced crystal precipitation | did not dissolve again |  |  |  |  |  |
| COCc1cc(CCC(C)(c2cc(COC)c(O)c(C3CCCCC3)c2)c2cc(COC)c(O)c(C3CCCCC3)c2)cc(COC)c1O [Compound (C2)] | > 100 | ∘ | ∘ | did not crystallize at all |  | more than twice higher | more soluble | more than 100.0 g/100 g | ∘ | ∘ |
